# Assays:
# Format in all cases: biochemical
# PI3Kδ (p110δ/p85α) = PI3Kδ (p110δ/p85α) (Homo sapiens (Human), UniProt O00329); experiment: AlphaScreen Assay for PI3Kδ (Assay A1); conditions: column a, 20 μM ATP
# Text: PI3-Kinase luminescent assay kit including lipid kinase substrate, D-myo-phosphatidylinositol 4,5-bisphosphate (PtdIns(4,5)P2)D (+)-sn-1,2-di-O-octanoylglyceryl, 3-O-phospho linked (PIP2), biotinylated I(1,3,4,5)P4, PI(3,4,5)P3 Detector Protein, was purchased from Echelon Biosciences (Salt Lake City, Utah). AlphaScreen™ GST Detection Kit including donor and acceptor beads was purchased from PerkinElmer Life Sciences (Waltham, Mass.). PI3Kδ (p110δ/p85α) was purchased from Millipore (Bedford, Mass.). ATP, MgCb, DTT, EDTA, HEPES and CHAPS were purchased from Sigma-Aldrich (St. Louis, Mo.).
# AlphaScreen™ Assay for PI3Kδ
# The kinase reaction was conducted in 384-well REMP plate from Thermo Fisher Scientific in a final volume of 40 μL. Inhibitors were first diluted serially in DMSO and added to the plate wells before the addition of other reaction components. The final concentration of DMSO in the assay was 2%. The PI3K assays were carried out at room temperature in 50 mM HEPES, pH 7.4, 5 mM MgCl2, 50 mM NaCl, 5 mM DTT and CHAPS 0.04%. Reactions were initiated by the addition of ATP, the final reaction mixture consisted of 20 μM PIP2, 20 μM ATP, 1.2 nM PI3Kδ were incubated for 20 min. 10 μL of reaction mixture was then transferred to 5 μL 50 nM biotinylated I(1,3,4,5)P4 in quench buffer: 50 mM HEPES pH 7.4, 150 mM NaCl, 10 mM EDTA, 5 mM DTT, 0.1% Tween-20, followed with the addition of 10 μL AlphaScreen™ donor and acceptor beads suspended in quench buffer containing 25 nM PI(3,4,5)P3 detector protein. The final concentration of both donor and acceptor beads is […]. After plate sealing, the plate was incubated in a dark location at room temperature for 2 hours. The activity of the product was determined on Fusion-alpha microplate reader (Perkin-Elmer). IC50 determination was performed by fitting the curve of percent control activity versus the log of the inhibitor concentration using the GraphPad Prism 3.0 software.
# PI3Kγ = PI3Kγ (Homo sapiens (Human), UniProt P48736); experiment: PI3K Enzyme Assay A2 ([γ-33P]ATP filter plate), PI3Kγ; conditions: Assay A2, 1000 μM ATP
# Sequence of PI3Kγ (P48736 whole entry, species assumed, canonical isoform): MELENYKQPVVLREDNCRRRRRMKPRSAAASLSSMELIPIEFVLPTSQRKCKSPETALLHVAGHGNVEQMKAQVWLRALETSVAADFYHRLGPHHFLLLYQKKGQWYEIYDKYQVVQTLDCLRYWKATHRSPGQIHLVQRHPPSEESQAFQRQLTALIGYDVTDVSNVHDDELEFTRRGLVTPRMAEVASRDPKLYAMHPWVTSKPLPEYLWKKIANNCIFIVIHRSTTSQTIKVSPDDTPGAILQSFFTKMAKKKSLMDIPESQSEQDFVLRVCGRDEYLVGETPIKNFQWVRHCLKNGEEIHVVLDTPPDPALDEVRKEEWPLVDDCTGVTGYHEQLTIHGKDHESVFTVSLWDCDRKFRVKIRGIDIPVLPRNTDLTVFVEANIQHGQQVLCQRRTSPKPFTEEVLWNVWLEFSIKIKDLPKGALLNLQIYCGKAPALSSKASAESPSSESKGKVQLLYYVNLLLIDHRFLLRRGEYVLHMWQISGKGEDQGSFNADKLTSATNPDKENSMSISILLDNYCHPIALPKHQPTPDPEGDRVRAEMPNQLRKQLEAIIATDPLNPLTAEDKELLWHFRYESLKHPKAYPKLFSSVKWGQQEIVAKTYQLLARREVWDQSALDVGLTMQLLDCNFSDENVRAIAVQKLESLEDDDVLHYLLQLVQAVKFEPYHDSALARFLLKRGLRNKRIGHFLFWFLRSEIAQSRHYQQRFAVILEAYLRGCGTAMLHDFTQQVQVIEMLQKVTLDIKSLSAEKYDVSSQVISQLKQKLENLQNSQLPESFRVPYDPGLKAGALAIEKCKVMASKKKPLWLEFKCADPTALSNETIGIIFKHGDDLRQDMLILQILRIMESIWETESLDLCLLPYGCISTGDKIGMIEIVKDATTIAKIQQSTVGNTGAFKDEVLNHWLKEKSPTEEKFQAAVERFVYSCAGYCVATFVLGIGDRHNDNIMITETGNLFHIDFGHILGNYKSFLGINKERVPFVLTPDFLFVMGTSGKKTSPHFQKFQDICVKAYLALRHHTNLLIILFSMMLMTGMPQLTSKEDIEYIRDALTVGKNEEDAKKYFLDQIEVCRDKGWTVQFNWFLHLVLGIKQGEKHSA
# Protocol: Materials: Lipid kinase substrate, phosphoinositol-4,5-bisphosphate (PIP2), was purchased from Echelon Biosciences (Salt Lake City, Utah). PI3K isoforms α, β, δ and γ were purchased from Millipore (Bedford, Mass.). ATP, MgCh, DTT, EDTA, MOPS and CHAPS were purchased from Sigma-Aldrich (St. Louis, Mo.).
# The kinase reaction was conducted in clear-bottom 96-well plate from Thermo Fisher Scientific in a final volume of 24 μL. Inhibitors were first diluted serially in DMSO and added to the plate wells before the addition of other reaction components. The final concentration of DMSO in the assay was 0.5%. The PI3K assays were carried out at room temperature in 20 mM MOPS, pH 6.7, 10 mM MgCl2, 5 mM DTT and CHAPS 0.03%. The reaction mixture was prepared containing 50 μM PIP2, kinase and varying concentration of inhibitors. Reactions were initiated by the addition of ATP containing 2.2 μCi [γ-^33P]ATP to a final concentration of 1000 μM. The final concentration of PI3K isoforms α, β, δ and γ in the assay were 1.3, 9.4, 2.9 and 10.8 nM respectively. Reactions were incubated for 180 min and terminated by the addition of 100 μL of 1 M potassium phosphate pH 8.0, 30 mM EDTA quench buffer. A 100 μL aliquot of the reaction solution was then transferred to 96-well Millipore MultiScreen IP 0.45 μm PVDF filter plate (The filter plate was prewetted with 200 μL 100% ethanol, distilled water, and 1 M potassium phosphate pH 8.0, respectively). The filter plate was aspirated on a Millipore Manifold under vacuum and washed with 18×200 μL wash buffer containing 1 M potassium phosphate pH 8.0 and 1 mM ATP. After drying by aspiration and blotting, the plate was air dried in an incubator at 37° C. overnight. Packard TopCount adapter (Millipore) was then attached to the plate followed with addition of 120 μL Microscint 20 scintillation cocktail (Perkin Elmer) in each well. After the plate sealing, the radioactivity of the product was determined by scintillation counting on Topcount (Perkin-Elmer). IC50 determination was performed by fitting the curve of percent control activity versus the log of the inhibitor concentration using the GraphPad Prism 3.0 software. […] See Table 1 for data related to compounds of the invention.
# PI3Kα = PI3Kα (Homo sapiens (Human), UniProt P42336); experiment: PI3K Enzyme Assay A2 ([γ-33P]ATP filter plate), PI3Kα; conditions: Assay A2, 1000 μM ATP
# Sequence of PI3Kα (P42336 whole entry, species assumed, canonical isoform): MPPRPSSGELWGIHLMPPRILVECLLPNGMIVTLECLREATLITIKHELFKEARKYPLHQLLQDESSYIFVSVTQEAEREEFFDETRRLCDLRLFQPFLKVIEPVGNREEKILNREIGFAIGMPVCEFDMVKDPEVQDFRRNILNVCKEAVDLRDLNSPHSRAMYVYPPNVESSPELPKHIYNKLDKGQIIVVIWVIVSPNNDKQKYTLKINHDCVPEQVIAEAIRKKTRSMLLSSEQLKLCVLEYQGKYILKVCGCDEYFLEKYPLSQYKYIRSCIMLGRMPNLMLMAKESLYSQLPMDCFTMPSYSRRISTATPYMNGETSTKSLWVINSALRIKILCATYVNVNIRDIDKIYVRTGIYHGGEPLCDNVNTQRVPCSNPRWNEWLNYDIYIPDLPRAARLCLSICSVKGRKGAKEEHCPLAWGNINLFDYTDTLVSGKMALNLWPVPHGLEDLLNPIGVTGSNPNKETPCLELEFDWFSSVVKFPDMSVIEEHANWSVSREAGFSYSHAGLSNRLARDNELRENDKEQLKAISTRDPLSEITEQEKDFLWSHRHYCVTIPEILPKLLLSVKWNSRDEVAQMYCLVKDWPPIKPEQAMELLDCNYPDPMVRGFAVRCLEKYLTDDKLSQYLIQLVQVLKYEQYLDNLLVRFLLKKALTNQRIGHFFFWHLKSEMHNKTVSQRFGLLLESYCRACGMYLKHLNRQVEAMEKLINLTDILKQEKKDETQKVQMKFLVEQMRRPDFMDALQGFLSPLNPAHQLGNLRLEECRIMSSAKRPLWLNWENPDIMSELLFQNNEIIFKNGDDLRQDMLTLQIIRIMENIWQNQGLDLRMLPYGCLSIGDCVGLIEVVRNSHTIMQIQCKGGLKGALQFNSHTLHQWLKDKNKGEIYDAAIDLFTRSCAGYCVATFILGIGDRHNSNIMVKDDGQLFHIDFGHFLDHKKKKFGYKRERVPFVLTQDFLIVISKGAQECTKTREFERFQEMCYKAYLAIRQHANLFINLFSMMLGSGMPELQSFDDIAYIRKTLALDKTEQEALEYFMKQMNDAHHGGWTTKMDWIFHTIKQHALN
# Sequence of PI3Kα (P27986 whole entry partner, species assumed, canonical isoform): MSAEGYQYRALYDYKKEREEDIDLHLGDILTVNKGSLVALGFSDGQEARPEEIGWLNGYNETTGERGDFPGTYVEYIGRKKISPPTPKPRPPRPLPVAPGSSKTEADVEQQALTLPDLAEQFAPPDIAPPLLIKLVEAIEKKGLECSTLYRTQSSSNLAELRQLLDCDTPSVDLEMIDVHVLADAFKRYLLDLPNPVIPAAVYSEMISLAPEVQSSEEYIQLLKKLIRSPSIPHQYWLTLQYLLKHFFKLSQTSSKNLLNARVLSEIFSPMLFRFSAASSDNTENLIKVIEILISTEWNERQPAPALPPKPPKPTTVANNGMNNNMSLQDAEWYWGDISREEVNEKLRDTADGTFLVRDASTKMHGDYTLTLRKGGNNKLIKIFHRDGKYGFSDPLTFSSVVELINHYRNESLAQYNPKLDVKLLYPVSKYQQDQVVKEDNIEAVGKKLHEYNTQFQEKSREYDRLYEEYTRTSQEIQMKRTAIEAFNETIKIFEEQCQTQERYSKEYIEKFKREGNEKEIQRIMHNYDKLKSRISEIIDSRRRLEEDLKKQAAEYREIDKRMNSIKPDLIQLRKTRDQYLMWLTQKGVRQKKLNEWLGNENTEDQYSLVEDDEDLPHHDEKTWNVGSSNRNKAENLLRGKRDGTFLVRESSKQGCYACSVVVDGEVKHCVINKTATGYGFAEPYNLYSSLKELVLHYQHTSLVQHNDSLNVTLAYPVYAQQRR
# Protocol: Materials: Lipid kinase substrate, phosphoinositol-4,5-bisphosphate (PIP2), was purchased from Echelon Biosciences (Salt Lake City, Utah). PI3K isoforms α, β, δ and γ were purchased from Millipore (Bedford, Mass.). ATP, MgCh, DTT, EDTA, MOPS and CHAPS were purchased from Sigma-Aldrich (St. Louis, Mo.). The kinase reaction was conducted in clear-bottom 96-well plate from Thermo Fisher Scientific in a final volume of 24 μL. Inhibitors were first diluted serially in DMSO and added to the plate wells before the addition of other reaction components. The final concentration of DMSO in the assay was 0.5%. The PI3K assays were carried out at room temperature in 20 mM MOPS, pH 6.7, 10 mM MgCl2, 5 mM DTT and CHAPS 0.03%. The reaction mixture was prepared containing 50 μM PIP2, kinase and varying concentration of inhibitors. Reactions were initiated by the addition of ATP containing 2.2 μCi [γ-^33P]ATP to a final concentration of 1000 μM. […] Reactions were incubated for 180 min and terminated by the addition of 100 μL of 1 M potassium phosphate pH 8.0, 30 mM EDTA quench buffer. A 100 μL aliquot of the reaction solution was then transferred to 96-well Millipore MultiScreen IP 0.45 μm PVDF filter plate (The filter plate was prewetted with 200 μL 100% ethanol, distilled water, and 1 M potassium phosphate pH 8.0, respectively). The filter plate was aspirated on a Millipore Manifold under vacuum and washed with 18×200 μL wash buffer containing 1 M potassium phosphate pH 8.0 and 1 mM ATP. After drying by aspiration and blotting, the plate was air dried in an incubator at 37° C. overnight. Packard TopCount adapter (Millipore) was then attached to the plate followed with addition of 120 μL Microscint 20 scintillation cocktail (Perkin Elmer) in each well. After the plate sealing, the radioactivity of the product was determined by scintillation counting on Topcount (Perkin-Elmer). IC50 determination was performed by fitting the curve of percent control activity versus the log of the inhibitor concentration using the GraphPad Prism 3.0 software.
# Sequence of PI3Kδ (p110δ/p85α) (O00329 whole entry, species assumed): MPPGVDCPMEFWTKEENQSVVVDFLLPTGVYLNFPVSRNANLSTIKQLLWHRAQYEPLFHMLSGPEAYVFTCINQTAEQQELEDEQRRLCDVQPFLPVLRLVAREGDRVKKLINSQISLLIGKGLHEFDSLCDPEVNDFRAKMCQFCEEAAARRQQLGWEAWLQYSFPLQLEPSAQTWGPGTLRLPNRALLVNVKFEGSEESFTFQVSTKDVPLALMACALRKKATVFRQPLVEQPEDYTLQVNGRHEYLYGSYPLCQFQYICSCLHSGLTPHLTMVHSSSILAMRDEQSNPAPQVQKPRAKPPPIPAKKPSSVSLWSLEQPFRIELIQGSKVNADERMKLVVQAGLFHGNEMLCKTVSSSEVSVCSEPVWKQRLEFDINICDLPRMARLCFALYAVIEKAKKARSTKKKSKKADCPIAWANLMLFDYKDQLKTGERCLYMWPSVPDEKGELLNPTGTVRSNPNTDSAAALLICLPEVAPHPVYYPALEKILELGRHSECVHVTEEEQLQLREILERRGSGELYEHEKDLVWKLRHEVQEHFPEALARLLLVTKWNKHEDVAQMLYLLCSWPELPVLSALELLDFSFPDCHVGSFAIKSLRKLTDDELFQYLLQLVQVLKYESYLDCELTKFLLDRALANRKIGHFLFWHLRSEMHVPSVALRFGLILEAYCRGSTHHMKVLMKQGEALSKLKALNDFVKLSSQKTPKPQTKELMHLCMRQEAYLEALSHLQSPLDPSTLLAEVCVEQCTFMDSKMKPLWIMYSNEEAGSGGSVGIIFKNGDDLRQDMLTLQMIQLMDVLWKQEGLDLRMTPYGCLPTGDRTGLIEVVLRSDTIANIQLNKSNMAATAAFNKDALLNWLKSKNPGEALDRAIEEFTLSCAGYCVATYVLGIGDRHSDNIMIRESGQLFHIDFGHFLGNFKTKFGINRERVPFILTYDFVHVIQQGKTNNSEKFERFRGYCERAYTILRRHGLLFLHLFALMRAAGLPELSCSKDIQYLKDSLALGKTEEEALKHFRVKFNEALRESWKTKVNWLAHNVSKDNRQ
# Sequence of PI3Kδ (p110δ/p85α) (P27986 whole entry partner, species assumed): as the sequence (P27986 whole entry partner, species assumed, canonical isoform) above
SMILES,IC50 (PI3Kδ (p110δ/p85α)) [nM],IC50 (PI3Kγ) [nM],IC50 (PI3Kα) [nM]
"Cc1csc2nc(C(C)Nc3nc(N)nc4[nH]cnc34)c(-c3ccccc3)c(=O)n12 (stereo not drawn) [Example 9, 7-{1-[(2-amino-9H-purin-6-yl)amino]ethyl}-3-methyl-6-phenyl-5H-[1,3]thiazolo[3,2-a]pyrimidin-5-one]",< 50,50 to 100,> 500
"Cc1csc2nc(C(C)Nc3nc(N)nc4[nH]cnc34)c(-c3cccc(F)c3)c(=O)n12 (stereo not drawn) [Example 11, 7-{1-[(2-amino-9H-purin-6-yl)amino]ethyl}-6-(3-fluorophenyl)-3-methyl-5H-[1,3]thiazolo[3,2-a]pyrimidin-5-one]",< 50,100 to 500,> 500
"Cc1csc2nc(C(C)Nc3nc(N)nc4[nH]cnc34)c(-c3cc(F)cc(F)c3)c(=O)n12 (stereo not drawn) [Example 13, 7-{1-[(2-amino-9H-purin-6-yl)amino]ethyl}-6-(3,5-difluorophenyl)-3-methyl-5H-[1,3]thiazolo[3,2-a]pyrimidin-5-one]",< 50,100 to 500,> 500

# — US9975907B2, “Pyrimidinones as PI3K inhibitors” (Incyte Corporation, priority 2009, dated 2018)
